Columns and labels:
[1] = system: AMPA receptor subunit GluR2; assay: CDKL5 gene silencing experiment, Western blotting of GluR2 and GluR2 phospho-Ser880 in primary hippocampal cultures; assay type: cell-based, mouse; conditions: CDKL5-silenced hippocampal neurons
Cdkl5 knockout mice = assay: Rotarod assessment of motor coordination in Cdkl5 knockout mice; assay type: in vivo
Description: The generation of Cdkl5 knockout mice and rotarod assessment of motor coordination could be carried out following the method described in Wang, I. -T. J et al. (2012) PNAS 109: 21516-21521, as follows.

[2] = system: AMPA receptor subunit GluR2; assay: CDKL5 gene silencing experiment, immunofluorescence of cell-surface expressed GluR2 in primary hippocampal cultures; assay type: cell-based, mouse; conditions: 10 uM on alternate days from DIV11 to DIV18 (DIV11-13-15-17); CDKL5-silenced hippocampal neurons
[3] = 10 uM on alternate days from DIV11 to DIV18 (DIV11-13-15-17)
[4] = 10 μM on alternate days from DIV15-18 (DIV15-17)

SMILES: CN1c2ccccc2C(NCCCCOCC(=O)O)c2ccc(Cl)cc2S1(=O)=O.Cl (stereo not drawn) [TIOX, 2-(4-((3-chloro-6-methyl-5,5-dioxido-6,11-dihydrodibenzo[c,f][1,2]thiazepin-11-yl)amino)butoxy)acetic acid, HCl salt]
- effect of CDKL5 silencing on expression of the AMPA receptor subunit GluR2 (Western blotting) [1, 3]: reversed the effect of CDKL5 silencing
- effect of CDKL5 silencing on phosphorylated GluR2 (phosphorylation at serine-880) (Western blotting) [1, 3]: reversed the effect of CDKL5 silencing
- effect of CDKL5 silencing on expression of the AMPA receptor subunit GluR2 (Western blotting) [1, 4]: reversed the effect of CDKL5 silencing
- effect of CDKL5 silencing on phosphorylated GluR2 (phosphorylation at serine-880) (Western blotting) [1, 4]: reversed the effect of CDKL5 silencing

SMILES: CN1c2ccccc2C(NCCCCCCC(=O)O)c2ccc(Cl)cc2S1(=O)=O (stereo not drawn) [Tianeptine, 7-[(3-chloro-6,1′-dihydro-6-methyl-dibenzo[c,f][1,2]thiazepin-11-yl)amino]heptanoic acid S,S-dioxide]
- time spent on the rotarod before falling (Cdkl5 knockout mice; Cdkl5 knockout mice treated before onset of motor deficits, at 3 weeks of age, relative to untreated mice): increase the time spent on the rotarod before falling
- rotarod scores (motor coordination and balance) (Cdkl5 knockout mice; Cdkl5 knockout mice treated from 6 weeks of age for 4 weeks, after onset of motor deficits, versus vehicle): higher than scores for Cdkl5 knockout mice given vehicle but are below WT values

SMILES: CN1c2ccccc2C(NCCCCCCC(=O)O)c2ccc(Cl)cc2S1(=O)=O.O=S(=O)(O)O (stereo not drawn) [tianeptine sulphate]
- effect of CDKL5 silencing on expression of the AMPA receptor subunit GluR2 (Western blotting) [1, 3]: reversed the effect of CDKL5 silencing
- effect of CDKL5 silencing on phosphorylated GluR2 (phosphorylation at serine-880) (Western blotting) [1, 3]: reversed the effect of CDKL5 silencing
- effect of CDKL5 silencing on expression of GluR2 in terms of number of puncta (immunofluorescence) [2]: reversed the effect of CDKL5 silencing

— patent publication US20220265676A1, “[…] DIBENZO[…] COMPOUNDS FOR USE IN THE THERAPY OF CDKL5 DISORDER” (Healx Limited, priority 2016, published 2022)
